Measured values from the supplement of paper PMC9663587.

Legend:
[1] = compound: CN1CC[C@H](c2c(O)cc(O)c3c(=O)cc(-c4ccccc4Cl)oc23)[C@H](O)C1 [Flavopiridol]; assay: GR value, 72 h; higher = faster growth (1 = untreated, <0 = killing);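 also: breast cancer and non-malignant breast epithelial lines, nine half-log doses, viable cells counted by Hoechst and LIVE/DEAD dye imaging versus time-zero plates and DMSO controls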
[2] = compound: C=CC(=O)Nc1ccc(C(=O)Nc2[nH]nc3c2CN(C(=O)N[C@H](CN(C)C)c2ccccc2)C3(C)C)cc1 [YKL-5-124]; assay: as above
[3] = compound: CCc1cnn2c(NCc3ccc[n+]([O-])c3)cc(N3CCCC[C@H]3CCO)nc12; assay: as above
[4] = compound: CC(=O)c1c(C)c2cnc(Nc3ccc(N4CCNCC4)cn3)nc2n(C2CCCC2)c1=O; assay: as above
[5] = compound: CN(C)C/C=C/C(=O)Nc1ccc(C(=O)N2CCC[C@@H](Nc3ncc(Cl)c(-c4c[nH]c5ccccc45)n3)C2)cc1 [THZ531]; assay: as above
[6] = compound: CN(C)C/C=C/C(=O)Nc1ccc(C(=O)Nc2cccc(Nc3ncc(Cl)c(-c4c[nH]c5ccccc45)n3)c2)cc1 [THZ1]; assay: as above
[7] = compound: CN(C)C(=O)c1cc2cnc(Nc3ccc(N4CCNCC4)cn3)nc2n1C1CCCC1 [LEE011/Ribociclib]; assay: as above
[8] = compound: CCN1CCN(Cc2ccc(Nc3ncc(F)c(-c4cc(F)c5nc(C)n(C(C)C)c5c4)n3)nc2)CC1; assay: as above
[9] = compound: CC(=O)O[C@H]1C(=O)[C@@]2(C)[C@H]([C@H](OC(=O)c3ccccc3)[C@]3(O)C[C@H](OC(=O)[C@H](O)[C@@H](NC(=O)c4ccccc4)c4ccccc4)C(C)=C1C3(C)C)[C@]1(OC(C)=O)CO[C@@H]1C[C@@H]2O [Paclitaxel]
[10] = compound: O=C(CCCCCCC(=O)Nc1ccccc1)NO [Vorinostat]
[11] = compound: NC1(C(=O)N[C@@H](CCO)c2ccc(Cl)cc2)CCN(c2nc[nH]c3nccc2-3)CC1 [AZD5363]
[12] = compound: CC(=O)c1c(C)c2cnc(Nc3ccc(N4CCN(CCOCCOCCOCCNC(=O)COc5cccc6c5C(=O)N(C5CCC(=O)NC5=O)C6=O)CC4)cn3)nc2n(C2CCCC2)c1=O [BSJ-03-123]
[13] = compound: CCc1cnn2c(NCc3ccc[n+]([O-])c3)cc(N3CCCC[C@H]3CCO)nc12
[14] = compound: Nc1cc(C(F)(F)F)c(-c2cc(N3CCOCC3)nc(N3CCOCC3)n2)cn1 [Buparlisib/NVP-BKM120]
[15] = compound: CC1(CCN(CC1)C2=CN=C(C(=N2)N)C3=C(C(=CC=C3)Cl)Cl)N [SHP099]
[16] = compound: COc1cc2nccc(Oc3ccc(NC(=O)C4(C(=O)Nc5ccc(F)cc5)CC4)cc3)c2cc1OC [Cabozantinib]
[17] = compound: CCN1CCN(Cc2ccc(Nc3ncc(F)c(-c4cc(F)c5nc(C)n(C(C)C)c5c4)n3)nc2)CC1
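For GR50, 72 h in this document: breast cancer and non-malignant breast epithelial cell lines, Deep Dye Drop or Dye Drop imaging, nine half-log doses, GR normalized to time-zero plates and DMSO-only controls.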

HCC70
GR value ([1]; 0.0001 µM): 1.05 GR | GR value ([1]; 0.0003162 µM): 1.01 GR | GR value ([1]; 0.001 µM): 1.1 GR | GR value ([1]; 0.003162 µM): 1.16 GR | GR value ([1]; 0.01 µM): 0.998 GR | GR value ([1]; 0.03162 µM): 0.791 GR | GR value ([1]; 0.1 µM): 0.371 GR | GR value ([1]; 0.3162 µM): -0.694 GR | GR value ([1]; 1 µM): -0.815 GR | GR value ([2]; 0.001 µM): -0.0339 GR | GR value ([2]; 0.003162 µM): -0.217 GR | GR value ([2]; 0.01 µM): -0.27 GR | GR value ([2]; 0.03162 µM): -0.419 GR | GR value ([2]; 0.1 µM): -0.484 GR | GR value ([2]; 0.3162 µM): -0.506 GR | GR value ([2]; 1 µM): -0.608 GR | GR value ([2]; 3.162 µM): -0.727 GR | GR value ([2]; 10 µM): -0.871 GR | GR value ([3]; 0.0001 µM): 1.05 GR | GR value ([3]; 0.0003162 µM): 0.913 GR | GR value ([3]; 0.001 µM): 1.13 GR | GR value ([3]; 0.003162 µM): 1.26 GR | GR value ([3]; 0.01 µM): 0.835 GR | GR value ([3]; 0.03162 µM): -0.865 GR | GR value ([3]; 0.1 µM): -0.892 GR | GR value ([3]; 0.3162 µM): -0.885 GR | GR value ([3]; 1 µM): -0.901 GR | GR value ([4]; 0.0003162 µM): 0.988 GR | GR value ([4]; 0.001 µM): 1.07 GR | GR value ([4]; 0.003162 µM): 1.08 GR | GR value ([4]; 0.01 µM): 1.07 GR | GR value ([4]; 0.03162 µM): 1.09 GR | GR value ([4]; 0.1 µM): 0.961 GR | GR value ([4]; 0.3162 µM): 1.06 GR | GR value ([4]; 1 µM): 1.05 GR | GR value ([4]; 3.162 µM): 0.896 GR | GR value ([5]; 0.0001 µM): 1.09 GR | GR value ([5]; 0.0003162 µM): 0.962 GR | GR value ([5]; 0.001 µM): 1.15 GR | GR value ([5]; 0.003162 µM): 1.02 GR | GR value ([5]; 0.01 µM): 1.16 GR | GR value ([5]; 0.03162 µM): 0.962 GR | GR value ([5]; 0.1 µM): -0.197 GR | GR value ([5]; 0.3162 µM): -0.793 GR | GR value ([5]; 1 µM): -0.941 GR | GR value ([6]; 0.0001 µM): 0.985 GR | GR value ([6]; 0.0003162 µM): 1.01 GR | GR value ([6]; 0.001 µM): 1.04 GR | GR value ([6]; 0.003162 µM): 1.02 GR | GR value ([6]; 0.01 µM): 0.707 GR | GR value ([6]; 0.03162 µM): -0.291 GR | GR value ([6]; 0.1 µM): -0.838 GR | GR value ([6]; 0.3162 µM): -0.936 GR | GR value ([6]; 1 µM): -0.944 GR | GR value ([7]; 0.001 µM): 1.03 GR | GR value ([7]; 0.003162 µM): 1.17 GR | GR value ([7]; 0.01 µM): 1.01 GR | GR value ([7]; 0.03162 µM): 1.04 GR | GR value ([7]; 0.1 µM): 1.09 GR | GR value ([7]; 0.3162 µM): 1.03 GR | GR value ([7]; 1 µM): 1.06 GR | GR value ([7]; 3.162 µM): 1.03 GR | GR value ([7]; 10 µM): 1.05 GR | GR value ([8]; 0.001 µM): 1.06 GR | GR value ([8]; 0.003162 µM): 1.38 GR | GR value ([8]; 0.01 µM): 1.24 GR | GR value ([8]; 0.03162 µM): 1.18 GR | GR value ([8]; 0.1 µM): 1.2 GR | GR value ([8]; 0.3162 µM): 1.06 GR | GR value ([8]; 1 µM): 0.852 GR | GR value ([8]; 3.162 µM): -0.0922 GR | GR value ([8]; 10 µM): -0.82 GR | GR50, 72 h [9]: 0.00134 µM | GR50, 72 h [10]: 0.413 µM | GR50, 72 h [11]: 0.0256 µM | GR50, 72 h [12]: 4.15 µM | GR50, 72 h [13]: 0.0129 µM | GR50, 72 h [14]: 0.437 µM | GR50, 72 h [15]: > 10 µM | GR50, 72 h [16]: 1.54 µM | GR50, 72 h [17]: 1.9 µM

HCC202
GR value ([1]; 0.0001 µM): 1.09 GR | GR value ([1]; 0.0003162 µM): 1.05 GR | GR value ([1]; 0.001 µM): 0.845 GR | GR value ([1]; 0.003162 µM): 0.773 GR | GR value ([1]; 0.01 µM): 0.976 GR | GR value ([1]; 0.03162 µM): 0.893 GR | GR value ([1]; 0.1 µM): 0.68 GR | GR value ([1]; 0.3162 µM): 0.24 GR | GR value ([1]; 1 µM): 0.0609 GR | GR value ([2]; 0.001 µM): 0.459 GR | GR value ([2]; 0.003162 µM): 0.432 GR | GR value ([2]; 0.01 µM): 0.377 GR | GR value ([2]; 0.03162 µM): 0.409 GR | GR value ([2]; 0.1 µM): 0.291 GR | GR value ([2]; 0.3162 µM): 0.228 GR | GR value ([2]; 1 µM): 0.337 GR | GR value ([2]; 3.162 µM): 0.288 GR | GR value ([2]; 10 µM): -0.165 GR | GR value ([3]; 0.0001 µM): 0.96 GR | GR value ([3]; 0.0003162 µM): 0.998 GR | GR value ([3]; 0.001 µM): 1.06 GR | GR value ([3]; 0.003162 µM): 1.03 GR | GR value ([3]; 0.01 µM): 0.784 GR | GR value ([3]; 0.03162 µM): 0.0982 GR | GR value ([3]; 0.1 µM): 0.14 GR | GR value ([3]; 0.3162 µM): 0.0849 GR | GR value ([3]; 1 µM): 0.0949 GR | GR value ([4]; 0.0003162 µM): 0.895 GR | GR value ([4]; 0.001 µM): 1 GR | GR value ([4]; 0.003162 µM): 0.904 GR | GR value ([4]; 0.01 µM): 0.913 GR | GR value ([4]; 0.03162 µM): 0.889 GR | GR value ([4]; 0.1 µM): 0.798 GR | GR value ([4]; 0.3162 µM): 0.851 GR | GR value ([4]; 1 µM): 0.753 GR | GR value ([4]; 3.162 µM): 0.693 GR | GR value ([5]; 0.0001 µM): 1.12 GR | GR value ([5]; 0.0003162 µM): 0.893 GR | GR value ([5]; 0.001 µM): 0.907 GR | GR value ([5]; 0.003162 µM): 1.12 GR | GR value ([5]; 0.01 µM): 0.883 GR | GR value ([5]; 0.03162 µM): 0.809 GR | GR value ([5]; 0.1 µM): 0.411 GR | GR value ([5]; 0.3162 µM): 0.0512 GR | GR value ([5]; 1 µM): 0.151 GR | GR value ([6]; 0.0001 µM): 0.915 GR | GR value ([6]; 0.0003162 µM): 1.02 GR | GR value ([6]; 0.001 µM): 0.961 GR | GR value ([6]; 0.003162 µM): 0.866 GR | GR value ([6]; 0.01 µM): 0.8 GR | GR value ([6]; 0.03162 µM): 0.397 GR | GR value ([6]; 0.1 µM): 0.154 GR | GR value ([6]; 0.3162 µM): 0.0808 GR | GR value ([6]; 1 µM): 0.0457 GR | GR value ([7]; 0.001 µM): 0.881 GR | GR value ([7]; 0.003162 µM): 1.03 GR | GR value ([7]; 0.01 µM): 1.03 GR | GR value ([7]; 0.03162 µM): 0.891 GR | GR value ([7]; 0.1 µM): 1.03 GR | GR value ([7]; 0.3162 µM): 0.883 GR | GR value ([7]; 1 µM): 0.833 GR | GR value ([7]; 3.162 µM): 0.813 GR | GR value ([7]; 10 µM): 0.829 GR | GR value ([8]; 0.001 µM): 0.929 GR | GR value ([8]; 0.003162 µM): 0.906 GR | GR value ([8]; 0.01 µM): 0.876 GR | GR value ([8]; 0.03162 µM): 0.855 GR | GR value ([8]; 0.1 µM): 0.809 GR | GR value ([8]; 0.3162 µM): 0.627 GR | GR value ([8]; 1 µM): 0.642 GR | GR value ([8]; 3.162 µM): 0.545 GR | GR value ([8]; 10 µM): 0.309 GR | GR50, 72 h [9]: 0.00379 µM | GR50, 72 h [10]: 3.57 µM | GR50, 72 h [11]: > 10 µM | GR50, 72 h [12]: 3.36 µM | GR50, 72 h [13]: 0.0137 µM | GR50, 72 h [14]: 0.431 µM | GR50, 72 h [15]: > 10 µM | GR50, 72 h [16]: > 10 µM | GR50, 72 h [17]: 2.43 µM
